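Five compound concentrations were applied to cells in 96-well plates for 48 hours; endpoints were derived by simple linear interpolation of the resulting dose-response curve. GI50 marks 50% less growth. TGI denotes the concentration required for complete inhibition of growth.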
Legend:
Test in all cases: DTP human tumour cell line panel, 48 h
SF-295 CNS = system: SF-295 CNS
MOLT-4 leukemia = system: MOLT-4 leukemia
A549 NSCLC = system: A549 NSCLC
OVCAR-5 ovarian = system: OVCAR-5 ovarian
U251 CNS = system: U251 CNS
MCF7 breast = system: MCF7 breast
BT-549 breast = system: BT-549 breast
HT29 colon = system: HT29 colon
TK-10 renal = system: TK-10 renal
A498 renal = system: A498 renal
SK-OV-3 ovarian = system: SK-OV-3 ovarian
NCI-H226 lung = system: NCI-H226 lung
DU-145 prostate = system: DU-145 prostate
ACHN renal = system: ACHN renal
MDA-MB-231 breast = system: MDA-MB-231 breast
OVCAR-8 ovarian = system: OVCAR-8 ovarian
SF-539 CNS = system: SF-539 CNS
HCT-15 colon = system: HCT-15 colon
HCC-2998 colon = system: HCC-2998 colon
SF-268 CNS = system: SF-268 CNS
MDA-MB-435 = system: MDA-MB-435
HCT-116 colon = system: HCT-116 colon
UACC-62 melanoma = system: UACC-62 melanoma
IGROV1 ovarian = system: IGROV1 ovarian
NCI/ADR-RES ovarian = system: NCI/ADR-RES ovarian
SK-MEL-28 melanoma = system: SK-MEL-28 melanoma
SW-620 colon = system: SW-620 colon
K-562 leukemia = system: K-562 leukemia
NCI-H460 lung = system: NCI-H460 lung
PC-3 prostate = system: PC-3 prostate
T-47D breast = system: T-47D breast
LOX IMVI melanoma = system: LOX IMVI melanoma
RPMI-8226 leukemia = system: RPMI-8226 leukemia
SK-MEL-2 melanoma = system: SK-MEL-2 melanoma
MALME-3M melanoma = system: MALME-3M melanoma
HS 578T breast = system: HS 578T breast
NCI-H23 lung = system: NCI-H23 lung
NCI-H522 lung = system: NCI-H522 lung
SNB-75 CNS = system: SNB-75 CNS
SNB-19 CNS = system: SNB-19 CNS
KM12 colon = system: KM12 colon
SK-MEL-5 melanoma = system: SK-MEL-5 melanoma
UO-31 renal = system: UO-31 renal
M14 melanoma = system: M14 melanoma
EKVX NSCLC = system: EKVX NSCLC
OVCAR-4 ovarian = system: OVCAR-4 ovarian
SN12C renal = system: SN12C renal
COLO 205 colon = system: COLO 205 colon
HL-60(TB) leukemia = system: HL-60(TB) leukemia
HOP-62 NSCLC = system: HOP-62 NSCLC
CCRF-CEM leukemia = system: CCRF-CEM leukemia
RXF 393 renal = system: RXF 393 renal
786-0 renal = system: 786-0 renal
CAKI-1 renal = system: CAKI-1 renal
OVCAR-3 ovarian = system: OVCAR-3 ovarian
UACC-257 melanoma = system: UACC-257 melanoma

In the case of Cc1ccc(C(=O)NC(C)C)cc1-c1ccc(C(=O)NCC2CC2)cc1, the GI50 (SF-295 CNS) is reported as greater than 25 µM, the TGI (SF-295 CNS) is reported as greater than 25 µM and the GI50 (MOLT-4 leukemia) is reported as greater than 25 µM. The TGI (MOLT-4 leukemia) was greater than 25 µM, the GI50 (A549 NSCLC) was greater than 25 µM and the TGI (A549 NSCLC) was greater than 25 µM. For the same compound, the GI50 (OVCAR-5 ovarian) was greater than 25 µM, the TGI (OVCAR-5 ovarian) was greater than 25 µM and the GI50 (U251 CNS) was greater than 25 µM. It also gave a TGI (U251 CNS) greater than 25 µM, a GI50 (MCF7 breast) greater than 25 µM and a TGI (MCF7 breast) greater than 25 µM. For the same compound, the GI50 (BT-549 breast) was greater than 25 µM, the TGI (BT-549 breast) was greater than 25 µM and the GI50 (HT29 colon) was greater than 25 µM. For the same compound, the TGI (HT29 colon) was greater than 25 µM, the GI50 (TK-10 renal) was greater than 25 µM and the TGI (TK-10 renal) was greater than 25 µM. For the same compound, the GI50 (A498 renal) was greater than 25 µM, the TGI (A498 renal) was greater than 25 µM and the GI50 (SK-OV-3 ovarian) was greater than 25 µM. The TGI (SK-OV-3 ovarian) was greater than 25 µM, the GI50 (NCI-H226 lung) was greater than 25 µM and the TGI (NCI-H226 lung) was greater than 25 µM. The GI50 (DU-145 prostate) was greater than 25 µM, the TGI (DU-145 prostate) was greater than 25 µM and the GI50 (ACHN renal) was greater than 25 µM. It also gave a TGI (ACHN renal) greater than 25 µM, a GI50 (MDA-MB-231 breast) greater than 25 µM and a TGI (MDA-MB-231 breast) greater than 25 µM. For the same compound, the GI50 (OVCAR-8 ovarian) was greater than 25 µM, the TGI (OVCAR-8 ovarian) was greater than 25 µM and the GI50 (SF-539 CNS) was greater than 25 µM. It also gave a TGI (SF-539 CNS) greater than 25 µM, a GI50 (HCT-15 colon) greater than 25 µM and a TGI (HCT-15 colon) greater than 25 µM. The GI50 (HCC-2998 colon) was greater than 25 µM, the TGI (HCC-2998 colon) was greater than 25 µM and the GI50 (SF-268 CNS) was greater than 25 µM. For the same compound, the TGI (SF-268 CNS) was greater than 25 µM, the GI50 (MDA-MB-435) was greater than 25 µM and the TGI (MDA-MB-435) was greater than 25 µM. It also gave a GI50 (HCT-116 colon) greater than 25 µM, a TGI (HCT-116 colon) greater than 25 µM and a GI50 (UACC-62 melanoma) greater than 25 µM. It also gave a TGI (UACC-62 melanoma) greater than 25 µM, a GI50 (IGROV1 ovarian) greater than 25 µM and a TGI (IGROV1 ovarian) greater than 25 µM. For the same compound, the GI50 (NCI/ADR-RES ovarian) was greater than 25 µM, the TGI (NCI/ADR-RES ovarian) was greater than 25 µM and the GI50 (SK-MEL-28 melanoma) was greater than 25 µM. It also gave a TGI (SK-MEL-28 melanoma) greater than 25 µM, a GI50 (SW-620 colon) greater than 25 µM and a TGI (SW-620 colon) greater than 25 µM. The GI50 (K-562 leukemia) was greater than 25 µM, the TGI (K-562 leukemia) was greater than 25 µM and the GI50 (NCI-H460 lung) was greater than 25 µM. The TGI (NCI-H460 lung) was greater than 25 µM, the GI50 (PC-3 prostate) was greater than 25 µM and the TGI (PC-3 prostate) was greater than 25 µM. It also gave a GI50 (T-47D breast) of 16.5 µM, a TGI (T-47D breast) greater than 25 µM and a GI50 (LOX IMVI melanoma) greater than 25 µM. It also gave a TGI (LOX IMVI melanoma) greater than 25 µM, a GI50 (RPMI-8226 leukemia) greater than 25 µM and a TGI (RPMI-8226 leukemia) greater than 25 µM. The GI50 (SK-MEL-2 melanoma) was greater than 25 µM, the TGI (SK-MEL-2 melanoma) was greater than 25 µM and the GI50 (MALME-3M melanoma) was greater than 25 µM. It also gave a TGI (MALME-3M melanoma) greater than 25 µM, a GI50 (HS 578T breast) greater than 25 µM and a TGI (HS 578T breast) greater than 25 µM. For the same compound, the GI50 (NCI-H23 lung) was greater than 25 µM, the TGI (NCI-H23 lung) was greater than 25 µM and the GI50 (NCI-H522 lung) was greater than 25 µM. The TGI (NCI-H522 lung) was greater than 25 µM, the GI50 (SNB-75 CNS) was greater than 25 µM and the TGI (SNB-75 CNS) was greater than 25 µM. For the same compound, the GI50 (SNB-19 CNS) was greater than 25 µM, the TGI (SNB-19 CNS) was greater than 25 µM and the GI50 (KM12 colon) was greater than 25 µM. The TGI (KM12 colon) was greater than 25 µM, the GI50 (SK-MEL-5 melanoma) was greater than 25 µM and the TGI (SK-MEL-5 melanoma) was greater than 25 µM. The GI50 (UO-31 renal) was greater than 25 µM, the TGI (UO-31 renal) was greater than 25 µM and the GI50 (M14 melanoma) was greater than 25 µM. It also gave a TGI (M14 melanoma) greater than 25 µM, a GI50 (EKVX NSCLC) greater than 25 µM and a TGI (EKVX NSCLC) greater than 25 µM. For the same compound, the GI50 (OVCAR-4 ovarian) was greater than 25 µM, the TGI (OVCAR-4 ovarian) was greater than 25 µM and the GI50 (SN12C renal) was greater than 25 µM. The TGI (SN12C renal) was greater than 25 µM, the GI50 (COLO 205 colon) was greater than 25 µM and the TGI (COLO 205 colon) was greater than 25 µM. It also gave a GI50 (HL-60(TB) leukemia) greater than 25 µM, a TGI (HL-60(TB) leukemia) greater than 25 µM and a GI50 (HOP-62 NSCLC) greater than 25 µM. The TGI (HOP-62 NSCLC) was greater than 25 µM, the GI50 (CCRF-CEM leukemia) was greater than 25 µM and the TGI (CCRF-CEM leukemia) was greater than 25 µM. For the same compound, the GI50 (RXF 393 renal) was greater than 25 µM, the TGI (RXF 393 renal) was greater than 25 µM and the GI50 (786-0 renal) was greater than 25 µM. It also gave a TGI (786-0 renal) greater than 25 µM, a GI50 (CAKI-1 renal) greater than 25 µM and a TGI (CAKI-1 renal) greater than 25 µM. For the same compound, the GI50 (OVCAR-3 ovarian) was greater than 25 µM, the TGI (OVCAR-3 ovarian) was greater than 25 µM and the GI50 (UACC-257 melanoma) was greater than 25 µM. It also gave a TGI (UACC-257 melanoma) greater than 25 µM.
